Each structure is given as a SMILES string.

The values that follow come from patent US20240285661A1, “Inhibitor of Invasion of Virus to Cell” (TOYO SUGAR REFINING CO., LTD., priority 2021, published 2024).

For experiment [1], the system named is pseudo SARS-CoV-2. Description: microbe, parasite or virus in culture. It is filed as cell-based. The note with it: Severe acute respiratory syndrome coronavirus 2, Caco-2 cells, read-out: Inhibition rate of invasion to cell (%).
In experiment [2] the test system is pseudo SARS-CoV-2. Description: microbe, parasite or virus in culture. Type of experiment: cell-based. The note with it: Severe acute respiratory syndrome coronavirus 2, A549, concentration 20 nM, read-out: Inhibition rate of invasion to cell (%).

As usually defined, the inhibition is the percentage by which the read-out fell short of the control. As to `N=C(N)c1ccc2cc(OC(=O)c3ccc(N=C(N)N)cc3)ccc2c1` [Nafamostat], the inhibition at 0.00016 µM in the experiment on pseudo SARS-CoV-2 [1] (concentration 0.16 nM) was found to be 40.4%. The inhibition at 0.0008 µM with pseudo SARS-CoV-2 [1] (concentration 0.80 nM) amounted to 48.9%. Besides, in the experiment on pseudo SARS-CoV-2 [1] (concentration 100 nM), the inhibition at 0.1 µM stood at 76.1%. Moreover, in the experiment on pseudo SARS-CoV-2 [2], the inhibition at 0.02 µM turned out to be 49%.
